This is an account of results in patent publication US20110136777A1, “CRYSTALLINE SODIUM SALT OF CEPHALOSPORIN ANTIBIOTIC” (Orchid Chemicals and Pharmaceuticals Limited, priority 2008, published 2011).

Data set [1] is described as follows: Stability at 40 ± 2° C. & 75 ± 5% RH. It counts as physicochemical. To be noted: for Assay: in % (unit assumed). How it is done:
(§1) In still another embodiment of the present invention, novel anhydrous crystalline polymorph of Ceftiofur sodium (Form A) of formula (I) having the following X-ray diffraction characteristic peaks (±0.2°2θ): 5.68, 6.54, 8.84, 12.82, 13.16, 16.33, 17.36, 18.71, 18.94, 20.25, 21.53, 22.11, 22.79, 24.44, 24.88, 25.46, and 27.00 in °2θ. The anhydrous crystalline Ceftiofur sodium of the present invention has moisture content in the range of 0.4 to 2.0%. The anhydrous Ceftiofur sodium (Form A) is prepared by drying the Ceftiofur sodium either under vacuum or under normal pressure at a temperature in the range of 60-125° C. till the moisture content reaches 0.4 to 2.0%. The moisture content of Ceftiofur sodium is measured by using Karl-Fisher technique. The following tables (Table 2 & 3) provide stability data of anhydrous crystalline Ceftiofur Sodium (Form A) prepared according to this invention. From this table it is evident that the anhydrous crystalline Ceftiofur Sodium prepared according this invention is very stable and highly pure, which is clearly indicated by total RS (Related substances) analysis & the stability data.

Data set [2] can be described thus: Stability at 25 ± 2° C. & 60 ± 5% RH. In kind it is physicochemical. Conditions: for Assay: in % (unit assumed). How it is done:
as §1

The nature of data set [3]: Hygroscopic nature of the solid. It counts as physicochemical.
Data set [4] is described as follows: Tapped bulk density. In kind it is physicochemical.
Data set [5] is described as follows: Stability over shelf life (statement in words). To be noted: over the shelf life period.

Molecules are shown by their SMILES. Read-outs that look alike come from different tables or passages of the source.

Regarding `CO/N=C(\C(=O)N[C@@H]1C(=O)N2C(C(=O)[O-])=C(CSC(=O)c3ccco3)CS[C@H]12)c1csc(N)n1.[Na+]` [Form A, Ceftiofur sodium], the Moisture Content was found to be 1.08% in data set [1] (3 Months); 1.54% in data set [1] (6 month); 1.05% in data set [1] (Initial); 1.05% in data set [2] (3 Months); 1.11% in data set [2] (6 month); 1.05% in data set [2] (Initial). Further, the Total RS (Related substances) is 0.19% in data set [1] (3 Months); 0.33% in data set [1] (6 month); 0.15% in data set [1] (Initial); 0.16% in data set [2] (3 Months); 0.21% in data set [2] (6 month); 0.15% in data set [2] (Initial). The Assay in data set [1] (3 Months) is 98.14; in data set [1] (6 month), 98.64; in data set [1] (Initial), 99.74; in data set [2] (3 Months), 98.84; in data set [2] (6 month), 99.47; in data set [2] (Initial), 99.74. The “Nature (hygroscopicity)” value in data set [3] is “Non-Hygroscopic”; in data set [3] (listed as anhydrous crystalline Ceftiofur sodium), “non-hygroscopic”. Moreover, the “Tapped Bulk density” value in data set [4] stood at 0.7 g/mL. Further, the Stability entry in data set [5] was “good”.

Consider `CO/N=C(\C(=O)N[C@@H]1C(=O)N2C(C(=O)[O-])=C(CSC(=O)c3ccco3)CS[C@H]12)c1csc(N)n1.[Na+]` [Amorphous, Ceftiofur sodium, reference compound], for which the “Nature (hygroscopicity)” value in data set [3] (listed as conventional amorphous Ceftiofur sodium) was “highly hygroscopic”. The “Tapped Bulk density” value in data set [4] amounted to 0.5 g/mL. Further, the Stability result in data set [5] (listed as amorphous Ceftiofur sodium) is “less stable”.
